Reference: PMC8815882, “Screening the pandemic response box identified benzimidazole carbamates, Olorofim and ravuconazole as promising drug candidates for the treatment of eumycetoma” (PLoS Neglected Tropical Diseases, 2022)
Read-outs that look alike come from different tables or passages of the source.

Tested on: M. mycetomatis genome strain MM55
Test: CLSI M38-A2 based in vitro susceptibility screening (XTT or resazurin), growth at fixed concentration
Type: cell-based, Madurella mycetomatis
Settings: Madurella mycetomatis
[1] = 25 uM, replicate A, read-out: Percentage survival at 25um, 25 um A
[2] = mean of three replicates, read-out: Percentage survival at 100um, 100 uM mean
[3] = replicate 1, read-out: Percentage survival at 100um, 100 uM A (first replicate column)
[4] = replicate 2, read-out: Percentage survival at 100um, 100 uM A (second replicate column)
[5] = replicate 3, read-out: Percentage survival at 100um, 100 uM A (third replicate column)
[6] = read-out: Percentage survival at 25um, 25 uM B
[7] = read-out: Percentage survival at 25um, 25 uM C
[8] = read-out: Percentage survival at 25um, 25 uM mean
[9] = 25 uM, replicate B, read-out: Percentage survival at 25um, 25 uM B
[10] = 25 uM, replicate C, read-out: Percentage survival at 25um, 25 uM C
[11] = 25 uM, mean of three replicates, read-out: Percentage survival at 25um, 25 uM mean
[12] = first replicate column, read-out: Percentage survival at 100um, 100 uM A
[13] = second replicate column, read-out: Percentage survival at 100um, 100 uM A
[14] = third replicate column, read-out: Percentage survival at 100um, 100 uM A

| SMILES | activity at 25 µM [1] | activity at 100 µM [2] | activity at 100 µM [3] | activity at 100 µM [5] | activity at 25 µM [9] | activity at 25 µM [10] | activity at 25 µM [11] | Percent fungal survival at 100 µM [4] | activity at 100 µM [12] | activity at 100 µM [13] | activity at 100 µM [14] | other results |
| --- | --- | --- | --- | --- | --- | --- | --- | --- | --- | --- | --- | --- |
| CCN(CC)CCCC(C)Nc1ccnc2cc(Cl)ccc12 (centres unmarked) [MMV000008] | 87.2% | 62.1% | 45.5% | 79.8% |  |  |  |  |  |  |  | activity at 100 µM [4]: 61%; activity at 25 µM [6]: 72.9%; activity at 25 µM [7]: 80.7%; activity at 25 µM [8]: 80.3% |
| COc1cc(Cc2cnc(N)nc2N)cc(OC)c1OC [MMV000028] |  |  |  |  |  |  |  |  |  |  |  | activity at 25 µM (25 uM, mean of three, M. mycetomatis MM55, read-out: Percentage survival at 25um, 25 uM mean): 83.8%; activity at 25 µM (25 uM, replicate A, M. mycetomatis MM55, read-out: Percentage survival at 25um, 25 um A): 93.1%; activity at 25 µM (25 uM, replicate B, M. mycetomatis MM55, read-out: Percentage survival at 25um, 25 uM B): 86.4%; activity at 25 µM (25 uM, replicate C, M. mycetomatis MM55, read-out: Percentage survival at 25um, 25 uM C): 71.8%; activity at 100 µM (mean of three, M. mycetomatis MM55, read-out: Percentage survival at 100um, 100 uM mean): 77.4%; activity at 100 µM (replicate 1, M. mycetomatis MM55, read-out: Percentage survival at 100um, 100 uM A (first replicate column)): 78.2%; activity at 100 µM (replicate 2, M. mycetomatis MM55, read-out: Percentage survival at 100um, 100 uM A (second replicate column)): 74.4%; activity at 100 µM (replicate 3, M. mycetomatis MM55, read-out: Percentage survival at 100um, 100 uM A (third replicate column)): 79.6% |
| CONC(=N)c1ccc(-c2ccc(-c3ccc(C(=N)NOC)cc3)o2)cc1 [MMV000059] | 94.2% |  |  |  | 81% | 79.4% |  |  |  |  |  | activity at 25 µM (25 uM, mean, read-out: Percentage survival at 25um, 25 uM mean): 84.9%; activity at 100 µM (mean, read-out: Percentage survival at 100um, 100 uM mean): 95.8%; activity at 100 µM (replicate (first column), read-out: Percentage survival at 100um, 100 uM A): 101%; activity at 100 µM (replicate (second column), read-out: Percentage survival at 100um, 100 uM A): 92%; activity at 100 µM (replicate (third column), read-out: Percentage survival at 100um, 100 uM A): 94.6% |
| O=C(c1ccccc1)N1CCN(c2ccccc2NC(=O)C(Cl)(Cl)Cl)CC1 [MMV001014] | 69% |  |  |  | 93.3% | 65.7% |  |  |  |  |  | activity at 25 µM (25 uM, mean of replicates, read-out: Percentage survival at 25um, 25 uM mean): 76%; activity at 100 µM (mean of replicates, read-out: Percentage survival at 100um, 100 uM mean): 78.9%; activity at 100 µM (replicate 1, read-out: Percentage survival at 100um, 100 uM A): 98.3%; activity at 100 µM (replicate 2, read-out: Percentage survival at 100um, 100 uM A): 71.3%; activity at 100 µM (replicate 3, read-out: Percentage survival at 100um, 100 uM A): 67.2% |
| Cc1c(OCC(F)(F)F)ccnc1C[S+]([O-])c1nc2ccccc2[nH]1 (centres unmarked) [MMV001438] | 79.3% | 55.3% | 41.9% | 71.8% | 123% | 84.8% | 95.7% | 52.1% |  |  |  |  |
| CCCCc1ccc(C(=O)O)nc1 [MMV001726] | 92.6% | 74.3% |  |  |  |  |  |  | 91.2% | 61.7% | 69.8% | activity at 25 µM [6]: 104%; activity at 25 µM [7]: 77.4%; activity at 25 µM [8]: 91.3% |
| Nc1nc(O)c2ncn(COC(CO)CO)c2n1 [MMV001761] | 86.2% | 87% |  |  | 64.3% | 58.4% | 69.6% |  | 93.4% | 85.2% | 82.5% |  |
| CC1=C(/C=C/C(C)=C/C=C/C(C)=C/C(=O)Nc2ccc(O)cc2)C(C)(C)CCC1 [MMV001793] | 69.1% | 62% | 59% | 68.7% | 68.9% | 66.2% | 68.1% | 58.3% |  |  |  |  |
| Nc1nc(O)c2ncn(COCCO)c2n1 [MMV001961] | 88.7% | 84.1% |  |  | 94.5% | 87.8% | 90.3% |  | 88.4% | 78.9% | 85% |  |
| NNC(=O)c1ccncc1 [MMV002169] | 90.1% | 85.3% | 84.8% | 89.3% | 80.7% | 85.9% | 85.6% | 81.9% |  |  |  |  |
